In US20090018134A1, “Compounds - 945” (AstraZeneca AB, priority 2007, published 2009):
Read-outs that look alike come from different tables or passages of the source.

Molecular target: T1, mTOR (Homo sapiens, UniProt P42345)
T1 construct: FLAG; made in house
Test: In Vitro mTOR Kinase Assay (Echo), Test (a)(ii)
Format: biochemical
How it was run: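 Compounds were acoustically dispensed, then incubated with FLAG-tagged mTOR (1362-2549) for 2 hours at room temperature. Reactions were quenched with EDTA plus detection antibody and AlphaScreen beads and left overnight in the dark before reading. Loss of phospho-T389 signal gave IC50 values.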

[1] = table of enzyme assay Test (a)(ii), read-out: Test (a)(ii) IC50
[2] = read-out: mTOR Kinase Assay (Echo)

T1 sequence (P42345 1362-2549): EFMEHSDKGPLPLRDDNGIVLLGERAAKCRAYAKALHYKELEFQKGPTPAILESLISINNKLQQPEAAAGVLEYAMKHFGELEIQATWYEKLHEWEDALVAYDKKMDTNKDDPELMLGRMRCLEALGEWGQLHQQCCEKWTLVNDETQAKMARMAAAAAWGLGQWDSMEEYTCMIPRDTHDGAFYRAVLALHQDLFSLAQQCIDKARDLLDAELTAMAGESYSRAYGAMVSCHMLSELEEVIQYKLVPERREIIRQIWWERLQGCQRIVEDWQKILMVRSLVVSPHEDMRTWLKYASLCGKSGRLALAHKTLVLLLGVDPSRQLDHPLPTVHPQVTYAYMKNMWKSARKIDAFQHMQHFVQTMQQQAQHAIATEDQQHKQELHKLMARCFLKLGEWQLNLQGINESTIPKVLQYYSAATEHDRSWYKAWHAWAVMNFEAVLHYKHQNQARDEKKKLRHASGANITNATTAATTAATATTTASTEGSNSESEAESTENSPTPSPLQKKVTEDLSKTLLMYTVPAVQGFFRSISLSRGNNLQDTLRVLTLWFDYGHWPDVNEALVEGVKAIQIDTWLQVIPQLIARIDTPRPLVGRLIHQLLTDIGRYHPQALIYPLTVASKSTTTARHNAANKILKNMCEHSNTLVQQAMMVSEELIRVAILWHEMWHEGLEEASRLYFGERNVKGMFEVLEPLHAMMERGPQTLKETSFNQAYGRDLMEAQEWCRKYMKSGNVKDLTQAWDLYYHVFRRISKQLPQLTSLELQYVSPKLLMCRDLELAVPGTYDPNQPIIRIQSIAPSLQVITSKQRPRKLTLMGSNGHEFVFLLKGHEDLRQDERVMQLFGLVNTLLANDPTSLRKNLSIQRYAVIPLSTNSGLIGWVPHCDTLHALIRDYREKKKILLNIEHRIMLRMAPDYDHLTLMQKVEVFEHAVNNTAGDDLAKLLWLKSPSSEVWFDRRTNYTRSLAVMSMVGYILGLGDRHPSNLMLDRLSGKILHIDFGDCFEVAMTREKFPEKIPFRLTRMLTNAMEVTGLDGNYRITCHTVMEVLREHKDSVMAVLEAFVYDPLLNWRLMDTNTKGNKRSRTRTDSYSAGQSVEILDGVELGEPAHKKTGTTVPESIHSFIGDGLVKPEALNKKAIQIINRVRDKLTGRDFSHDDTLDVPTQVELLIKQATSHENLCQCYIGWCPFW

| SMILES | IC50 [1] | IC50 [2] |
| --- | --- | --- |
| CNC(=O)Nc1ccc(-c2nc(N3CCOC[C@@H]3C)cc(C3(S(=O)(=O)c4nc(C)c(C)s4)CC3)n2)cc1 [Example 80d, 1-[4-[4-[1-[(4,5-dimethyl-1,3-thiazol-2-yl)sulfonyl]cyclopropyl]-6-[(3S)-3-methylmorpholin-4-yl]pyrimidin-2-yl]phenyl]-3-methylurea] | 9.51 nM |  |
| CNC(=O)Nc1ccc(-c2nc(N3CCOCC3)cc(C3(C(=O)N4CCOC[C@@H]4C)CC3)n2)cc1 [Example 32a, 3-methyl-1-[4-[4-[1-[(3S)-3-methylmorpholine-4-carbonyl]cyclopropyl]-6-morpholin-4-ylpyrimidin-2-yl]phenyl]urea] | 42.5 nM |  |
| O=C(NCCO)Nc1ccc(-c2nc(N3CCOCC3)cc(C3(C(=O)NC4CC4)CC3)n2)cc1 [Example 34b, N-cyclopropyl-1-[2-[4-(2-hydroxyethylcarbamoylamino)phe-nyl]-6-morpholin-4-ylpyrimidin-4-yl]cyclopropane-1-carboxamide] | 10.9 nM |  |
| CC[C@H]1COCCN1c1cc(C2(S(=O)(=O)c3ccccc3)CC2)nc(-c2ccc(NC(=O)NCC3(O)CC3)cc2)n1 [Example 74i, 1-[4-[4-[1-(benzenesulfonyl)cyclopropyl]-6-[(3S)-3-ethylmorpholin-4-yl]pyrimidin-2-yl]phenyl]-3-[(1-hydroxycyclopropyl)methyl]urea] | 9.25 nM |  |
| CC(C)S(=O)(=O)C1(c2cc(N3CCOC[C@@H]3C)nc(-c3ccc(NC(=O)Nc4cnn(C)c4)cc3)n2)CC1 [Example 7m, 1-[4-[4-[(3S)-3-methylmorpholin-4-yl]-6-(1-propan-2-ylsulfonylcyclopropyl)pyrimidin-2-yl]phenyl]-3-(1-methylpyrazol-4-yl)urea] |  | 5.04 nM |
| CCNC(=O)Nc1ccc(-c2nc(N3CCOC[C@@H]3C)cc(C3(S(=O)(=O)c4ccncc4)CC3)n2)cc1 [Example 6d, 3-ethyl-1-[4-[4-[(3S)-3-methylmorpholin-4-yl]-6-(1-pyridin-4-ylsulfonylcyclopropyl)pyrimidin-2-yl]phenyl]urea] |  | 0.874 nM |
| Cc1nn(C)cc1S(=O)(=O)C1(c2cc(N3CCOC[C@@H]3C)nc(-c3ccc(NC(=O)NC4CC4)cc3)n2)CC1 [Example 55a, 3-cyclopropyl-1-[4-[4-[1-(1,3-dimethylpyrazol-4-yl)sulfonylcyclopropyl]-6-[(3S)-3-methylmorpholin-4-yl]pyrimidin-2-yl]phenyl]urea] | 21.3 nM |  |
| CS(=O)(=O)C1(c2cc(N3CCOCC3)nc(-c3ccc(NC(=O)NCCO)cc3)n2)CCCC1 [Example 12l, 3-(2-hydroxyethyl)-1-[4-[4-(1-methylsulfonylcyclopentyl)-6-morpholin-4-ylpyrimidin-2-yl]phenyl]urea] |  | 1.38 nM |
| C[C@H]1COCCN1c1cc(C2(S(=O)(=O)CCO)CC2)nc(-c2ccc(NC(=O)NCCCO)cc2)n1 [Example 16f, 1-[4-[4-[1-(2-hydroxyethylsulfonyl)cyclopropyl]-6-[(3S)-3-methylmorpholin-4-yl]pyrimidin-2-yl]phenyl]-3-(3-hydroxypropyl)urea] | 21.2 nM |  |
| C[C@H]1COCCN1c1cc(C2(S(=O)(=O)C(C)(C)C)CC2)nc(-c2ccc(NC(=O)Nc3ccccn3)cc2)n1 [Example 18b, 1-[4-[4-(1-tert-butylsulfonylcyclopropyl)-6-[(3S)-3-methylmorpholin-4-yl]pyrimidin-2-yl]phenyl]-3-pyridin-2-ylurea] | 14.7 nM |  |
| C[C@H]1COCCN1c1cc(C2(S(=O)(=O)c3ccc(F)cc3)CC2)nc(-c2ccc(NC(=O)NC3CCC3)cc2)n1 [Example 8d, 3-cyclobutyl-1-[4-[4-[1-(4-fluorophenyl)sulfonylcyclopropyl]-6-[(3S)-3-methylmorpholin-4-yl]pyrimidin-2-yl]phenyl]urea] |  | 1.34 nM |
| CCNC(=O)Nc1ccc(-c2nc(N3CCOC[C@@H]3C)cc(C3(S(C)(=O)=O)CC3)n2)cc1F [Example 52b, 3-ethyl-1-[2-fluoro-4-[4-[(3S)-3-methylmorpholin-4-yl]-6-(1-methylsulfonylcyclopropyl)pyrimidin-2-yl]phenyl]urea] | 30.7 nM |  |
| C[C@H]1COCCN1c1cc(C2(S(=O)(=O)c3ccccc3C(F)(F)F)CC2)nc(-c2ccc(NC(=O)NC3CCC3)cc2)n1 [Example 10a, 3-cyclobutyl-1-[4-[4-[(3S)-3-methylmorpholin-4-yl]-6-[1-[2-(trifluoromethyl)phenyl]sulfonylcyclopropyl]pyrimidin-2-yl]phenyl]urea] |  | 39.5 nM |
| CNC(=O)Nc1ncc(-c2nc(N3CCOC[C@@H]3C)cc(C3(S(=O)(=O)C4CC4)CC3)n2)cn1 [Example 14x, 1-[5-[4-(1-cyclopropylsulfonylcyclopropyl)-6-[(3S)-3-methylmorpholin-4-yl]pyrimidin-2-yl]pyrimidin-2-yl]-3-methylurea] | 630 nM |  |

Further molecules by falling IC50 [1], results first:

| IC50 [1] | IC50 [2] | SMILES |
| --- | --- | --- |
| 8.41 nM |  | C[C@H]1COCCN1c1cc(C2(S(=O)(=O)C3CC3)CCC2)nc(-c2ccc(NC(=O)NCCC#N)cc2)n1 [Example 36g, 3-(2-cyanoethyl)-1-[4-[4-(1-cyclopropylsulfonylcyclobutyl)-6-[(3S)-3-methylmorpholin-4-yl]pyrimidin-2-yl]phenyl]urea] |
| 7.89 nM |  | C[C@H](CO)NC(=O)Nc1ccc(-c2nc(N3CCOC[C@@H]3C)cc(C3(S(=O)(=O)c4nccs4)CCC3)n2)cc1 [Example 98l, 3-[(2R)-1-hydroxypropan-2-yl]-1-[4-[4-[(3S)-3-methylmorpholin-4-yl]-6-[1-(1,3-thiazol-2-ylsulfonyl)cyclobutyl]pyrimidin-2-yl]phenyl]urea] |
| 7.85 nM |  | C[C@H]1COCCN1c1cc(C2(S(=O)(=O)c3ccc(OC(F)F)cc3)CC2)nc(-c2ccc(NC(=O)NC3CC3)cc2)n1 [Example 64, 3-Cyclopropyl-1-[4-[4-[1-[4-(difluoromethoxy)phenyl]sulfonylcyclopropyl]-6-[(3 S)-3-methylmorpholin-4-yl]pyrimidin-2-yl]phenyl]urea] |
| 6.29 nM |  | C[C@H]1COCCN1c1cc(C2(S(=O)(=O)CCCO)CCC2)nc(-c2ccc(NC(=O)Nc3ncns3)cc2)n1 [Example 43s, 1-[4-[4-[1-(3-hydroxypropylsulfonyl)cyclobu-tyl]-6-[(3S)-3-methylmorpholin-4-yl]pyrimidin-2-yl]phenyl]-3-(1,2,4-thiadiazol-5-yl)urea] |
| 5.41 nM |  | C[C@H]1COC[C@H](C)N1c1cc(C2(S(=O)(=O)c3ccccc3)CC2)nc(-c2ccc(NC(=O)Nc3cnn(C)c3)cc2)n1 [Example 93e, 1-[4-[4-[1-(benzenesulfonyl)cyclopropyl]-6-[(3S,5S)-3,5-dimethylmorpholin-4-yl]pyrimidin-2-yl]phenyl]-3-(1-methylpyrazol-4-yl)urea] |
| 4.77 nM |  | O=C(NCCCO)Nc1ccc(-c2nc(N3CCOCC3)cc(C3(S(=O)(=O)C4CC4)CCC3)n2)cc1 [Example 13u, 1-[4-[4-(1-cyclopropylsulfonylcyclobutyl)-6-morpholin-4-ylpyrimidin-2-yl]phenyl]-3-(3-hydroxypropyl)urea] |
| 4.77 nM |  | CNC(=O)Nc1ccc(-c2nc(N3CCOC[C@@H]3C)cc(C3(S(=O)(=O)c4ccc(C(N)=O)cc4Cl)CC3)n2)cc1 [Example 85, 3-Chloro-4-[1-[2-[4-(methylcarbamoylamino)phenyl]-6-[(3S)-3-methylmorpholin-4-yl]pyrimidin-4-yl]cyclopropyl]sulfonylbenzamide] |
| 4.59 nM |  | CNC(=O)Nc1ccc(-c2nc(N3CCOC[C@@H]3C)cc(C3(S(C)(=O)=O)CCOCC3)n2)cc1 [Example 23a, 3-methyl-1-[4-[4-[(3S)-3-methylmorpholin-4-yl]-6-(4-methylsulfonyloxan-4-yl)pyrimidin-2-yl]phenyl]urea] |
| 4.48 nM |  | CCS(=O)(=O)C1(c2cc(N3CCOC[C@@H]3C)nc(-c3ccc(NC(=S)NCCO)cc3)n2)CCC1 [Example 88a, 1-[4-[4-(1-ethylsulfonylcyclobutyl)-6-[(3S)-3-methylmorpholin-4-yl]pyrimidin-2-yl]phenyl]-3-(2-hydroxyethyl)thiourea] |
| 4.25 nM |  | C[C@H]1COCCN1c1cc(C2(S(=O)(=O)c3ccc(Cl)cc3)CC2)nc(-c2ccc(NC(=O)Nc3ccccn3)cc2)n1 [Example 27b, 1-[4-[4-[1-(4-chlorophenyl)sulfonylcyclopropyl]-6-[(3S)-3-methylmorpholin-4-yl]pyrimidin-2-yl]phenyl]-3-pyridin-2-ylurea] |
| 4.13 nM |  | Cc1csc(S(=O)(=O)C2(c3cc(N4CCOC[C@@H]4C)nc(-c4ccc(NC(=O)N[C@@H](C)CO)cc4)n3)CCC2)n1 [Example 98b, 3-[(2S)-1-hydroxypropan-2-yl]-1-[4-[4-[(3S)-3-methylmorpholin-4-yl]-6-[1-[(4-methyl-1,3-thiazol-2-yl)sulfonyl]cyclobutyl]pyrimidin-2-yl]phenyl]urea] |
| 4.01 nM |  | CCCNC(=O)Nc1ccc(-c2nc(N3CCOCC3)cc(C3(S(=O)(=O)c4nc(C)cs4)CC3)n2)cc1 [Example 42g, 3-[4-[4-[1-[(4-methyl-1,3-thiazol-2-yl)sulfonyl]cyclopropyl]-6-morpholin-4-ylpyrimidin-2-yl]phenyl]-1-propylurea] |
| 3.23 nM |  | CNC(=O)Nc1ccc(-c2nc(N3CCOC[C@@H]3C)cc(C3(S(=O)(=O)CCCO)CC3)n2)cc1 [Example 31g, 1-[4-[4-[1-(3-hydroxypropylsulfonyl)cyclopropyl]-6-[(3S)-3-methylmorpholin-4-yl]pyrimidin-2-yl]phenyl]-3-methylurea] |
| 2.93 nM |  | C[C@H]1COCCN1c1cc(C2(S(=O)(=O)c3ccccc3F)CC2)nc(-c2ccc(NC(=O)NCC(F)F)cc2)n1 [Example 58d, 3-(2,2-difluoroethyl)-1-[4-[4-[1-(2-fluorophenyl)sulfonylcyclopropyl]-6-[(3S)-3-methylmorpholin-4-yl]pyrimidin-2-yl]phenyl]urea] |
| 2.47 nM |  | C[C@H]1COCCN1c1cc(C2(S(=O)(=O)c3c(F)cccc3F)CC2)nc(-c2ccc(NC(=O)NCCO)cc2)n1 [Example 86c, 1-[4-[4-[1-(2,6-difluorophenyl)sulfonylcyclopropyl]-6-[(3S)-3-methylmorpholin-4-yl]pyrimidin-2-yl]phenyl]-3-(2-hydroxyethyl)urea] |
| 0.502 nM |  | CNC(=O)Nc1ccc(-c2nc(N3CCOC[C@@H]3C)cc(C3(S(=O)(=O)c4nccs4)CC3)n2)cc1 [Example 39a] |
